Results published in ChEMBL document CHEMBL1128530, “Alpha- and beta-adrenoceptors: from the gene to the clinic. 1. Molecular biology and adrenoceptor subclassification” (J Med Chem, 1995).

Experiments:
[1] = biological target: T1, Alpha-1A adrenergic receptor (Homo sapiens, UniProt P35348); test: Binding affinity against Alpha-1A adrenergic receptor from human clone
T1 sequence (P35348 whole entry): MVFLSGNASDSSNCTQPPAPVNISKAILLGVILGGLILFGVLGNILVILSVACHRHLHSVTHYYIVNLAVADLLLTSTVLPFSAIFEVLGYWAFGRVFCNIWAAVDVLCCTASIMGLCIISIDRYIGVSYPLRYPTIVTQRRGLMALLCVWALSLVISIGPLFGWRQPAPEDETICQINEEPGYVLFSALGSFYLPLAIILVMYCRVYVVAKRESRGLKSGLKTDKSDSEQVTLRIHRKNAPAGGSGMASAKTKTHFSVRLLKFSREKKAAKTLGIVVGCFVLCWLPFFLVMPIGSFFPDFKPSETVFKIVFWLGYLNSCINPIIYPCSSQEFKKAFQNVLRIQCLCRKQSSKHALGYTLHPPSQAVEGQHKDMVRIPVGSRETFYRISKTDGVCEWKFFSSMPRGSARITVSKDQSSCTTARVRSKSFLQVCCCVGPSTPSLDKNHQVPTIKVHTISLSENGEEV

[2] = biological target: T2, Alpha-2A adrenergic receptor (Homo sapiens, UniProt P08913); test: Binding affinity against Alpha-2A adrenergic receptor, from human clones.
T2 sequence (P08913 whole entry): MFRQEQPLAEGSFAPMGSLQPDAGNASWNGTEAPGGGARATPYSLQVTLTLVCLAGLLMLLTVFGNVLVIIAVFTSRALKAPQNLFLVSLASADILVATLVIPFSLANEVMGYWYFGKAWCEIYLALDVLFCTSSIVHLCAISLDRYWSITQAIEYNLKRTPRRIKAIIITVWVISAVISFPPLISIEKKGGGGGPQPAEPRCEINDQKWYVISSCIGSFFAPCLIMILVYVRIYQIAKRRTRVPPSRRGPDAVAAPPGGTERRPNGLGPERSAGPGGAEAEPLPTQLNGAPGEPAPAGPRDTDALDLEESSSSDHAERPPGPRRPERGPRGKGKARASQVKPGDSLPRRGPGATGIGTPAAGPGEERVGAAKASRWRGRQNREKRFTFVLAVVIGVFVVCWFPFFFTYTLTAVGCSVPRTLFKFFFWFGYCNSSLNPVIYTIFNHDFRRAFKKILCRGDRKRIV

[3] = biological target: T3, Alpha-1A adrenergic receptor (Rattus norvegicus, UniProt P43140); test: Overall binding displacement in tissues containing only the Alpha-1A adrenergic receptor from rat submaxillary gland
T3 sequence (P43140 whole entry): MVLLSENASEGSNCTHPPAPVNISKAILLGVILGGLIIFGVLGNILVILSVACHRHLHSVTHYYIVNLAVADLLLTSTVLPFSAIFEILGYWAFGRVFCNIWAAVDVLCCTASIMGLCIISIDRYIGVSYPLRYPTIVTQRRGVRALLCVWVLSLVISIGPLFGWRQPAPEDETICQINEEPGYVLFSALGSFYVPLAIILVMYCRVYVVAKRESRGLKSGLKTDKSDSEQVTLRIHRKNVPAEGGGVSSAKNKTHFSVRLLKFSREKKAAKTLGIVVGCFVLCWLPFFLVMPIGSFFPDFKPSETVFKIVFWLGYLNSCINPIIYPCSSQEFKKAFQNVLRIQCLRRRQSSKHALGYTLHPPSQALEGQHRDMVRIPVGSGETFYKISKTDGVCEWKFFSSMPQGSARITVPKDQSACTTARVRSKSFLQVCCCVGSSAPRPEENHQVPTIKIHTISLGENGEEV

[4] = biological target: T4, Alpha-1A adrenergic receptor (Bos taurus, UniProt P18130); test: Binding affinity against Alpha-1A adrenergic receptor from bovine clone
T4 sequence (P18130 whole entry): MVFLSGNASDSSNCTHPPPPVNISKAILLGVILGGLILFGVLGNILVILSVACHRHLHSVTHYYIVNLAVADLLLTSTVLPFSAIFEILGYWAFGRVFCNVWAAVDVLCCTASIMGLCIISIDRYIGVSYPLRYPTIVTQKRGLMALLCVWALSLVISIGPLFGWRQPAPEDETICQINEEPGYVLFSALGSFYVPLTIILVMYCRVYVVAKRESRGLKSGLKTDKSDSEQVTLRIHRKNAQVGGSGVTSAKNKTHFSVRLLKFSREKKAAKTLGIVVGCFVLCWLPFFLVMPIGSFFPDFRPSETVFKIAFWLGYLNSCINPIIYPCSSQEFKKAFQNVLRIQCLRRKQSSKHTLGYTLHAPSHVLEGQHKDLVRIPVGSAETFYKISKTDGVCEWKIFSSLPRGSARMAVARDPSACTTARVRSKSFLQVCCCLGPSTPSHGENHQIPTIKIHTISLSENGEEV

[5] = biological target: T4, Alpha-1A adrenergic receptor; test: The compound was tested for binding affinity against Alpha-1A adrenergic receptor from bovine clones.
[6] = biological target: T1, Alpha-1A adrenergic receptor; test: The compound was tested for binding affinity against Alpha-1A adrenergic receptor from human clones.
[7] = biological target: T5, Alpha-1B adrenergic receptor (Homo sapiens, UniProt P35368); test: The compound was tested for binding affinity against Alpha-1B adrenergic receptor, from human clones.
T5 sequence (P35368 whole entry): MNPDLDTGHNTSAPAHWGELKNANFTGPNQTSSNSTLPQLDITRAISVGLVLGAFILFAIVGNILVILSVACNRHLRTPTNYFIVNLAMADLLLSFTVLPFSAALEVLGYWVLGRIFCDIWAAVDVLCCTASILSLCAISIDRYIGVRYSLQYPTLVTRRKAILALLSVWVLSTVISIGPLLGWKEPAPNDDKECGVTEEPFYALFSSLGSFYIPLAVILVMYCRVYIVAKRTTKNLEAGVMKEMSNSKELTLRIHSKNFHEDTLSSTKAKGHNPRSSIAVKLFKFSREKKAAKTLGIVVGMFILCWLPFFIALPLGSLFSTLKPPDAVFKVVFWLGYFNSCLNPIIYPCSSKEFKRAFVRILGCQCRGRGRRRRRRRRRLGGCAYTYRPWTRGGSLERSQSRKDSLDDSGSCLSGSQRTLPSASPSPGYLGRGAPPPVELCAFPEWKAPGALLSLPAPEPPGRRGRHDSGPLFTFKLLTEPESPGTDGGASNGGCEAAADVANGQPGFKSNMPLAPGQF

| Compound | Ki [1] [nM] | Ki [2] [nM] | Ki [3] [nM] | Ki [4] [nM] | Ki [5] [nM] | Ki [6] [nM] | Ki [7] [nM] |
| --- | --- | --- | --- | --- | --- | --- | --- |
| COc1cccc(OC)c1OCCNCC1COc2ccccc2O1 (stereo unspecified) | 0.37 | 3.5 | 0.08 | 0.35 | – | – | – |
| COc1ccccc1N1CCN(CCCNc2c(C)c(=O)n(C)c(=O)n2C)CC1 | – | – | 0.7 | – | 4.4 | 2.3 | 92 |
| O=C(NC1CCN(CCc2c[nH]c3ccccc23)CC1)c1ccccc1 [INDORAMIN] | – | – | – | – | 12 | 3.7 | 29 |
